Literature values in patent US20230405018A1, “FLUMAZENIL FORMULATIONS FOR SUBCUTANEOUS INJECTION AND METHODS OF TREATMENT USING GABA RECEPTOR MODULATORS” (Bexson Biomedical, Inc., priority 2020, published 2023).
Read-outs that look alike come from different tables or passages of the source.

What was measured:
[1] = acidic USP flumazenil preparations (pH ~4)
[2] = tested on: benzodiazepine withdrawal symptoms
[3] = reported

For `CCOC(=O)c1ncn2c1CN(C)C(=O)c1cc(F)ccc1-2` [flumazenil, ethyl 8-fluoro-5,6-dihydro-5-methyl-6-oxo-4H-imidazo[1,5-a][1,4] benzodiazepine-3-carboxylate], the “Solubility / concentration of flumazenil in USP preparations” value [1] is listed as about 0.1 mg/mL, the “Systemic availability after first pass hepatic metabolism” value (in vivo) is listed as “less than 25%” and the Oral bioavailability (in vivo, po) is listed as “extremely limited and poor”. The Half-life (rapid metabolism in the liver) was 4 to 11 min, the “Effect on withdrawal, craving and cessation” value ([2]; bolus administrations in conjunction with benzodiazepine tapering) was “reduction of benzodiazepine withdrawal symptoms, reduced craving, and increased completion of cessation of benzodiazepines without relapse” and the “Effect on withdrawal symptoms” value ([2]; continuous 2 mg/24 h over 96 h by IV with oxazepam tapering) was “drastically curtail withdrawal symptoms”. For the same compound, the “Effect on withdrawal symptoms” value ([2]; ~1-2 mg bolus over several hours, high dose benzodiazepine patients abstinent at least three weeks) was “reduce withdrawal symptoms”.

For “sulfobutyl-ether-beta-cyclodextrin [SBE-β-CD]”, the “Solubility of SBE-β-CD” value [3] is given as 600 mg/mL.
